# Assay results reported in PubChem BioAssay (NCI).
#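 Protocol summary: plate cells (96-well), add compound at 5 concentrations, incubate 48 h, interpolate endpoints linearly. TGI denotes the concentration required for complete inhibition of growth.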
# What was measured:
# Assay in all cases: NCI anticancer screen, dose series, 48 h
# 786-0 renal = system: 786-0 renal
# COLO 205 colon = system: COLO 205 colon
# NCI-H23 lung = system: NCI-H23 lung
# MALME-3M melanoma = system: MALME-3M melanoma
# SK-OV-3 ovarian = system: SK-OV-3 ovarian
# HOP-62 NSCLC = system: HOP-62 NSCLC
# KM12 colon = system: KM12 colon
# RPMI-8226 leukemia = system: RPMI-8226 leukemia
# EKVX NSCLC = system: EKVX NSCLC
# ACHN renal = system: ACHN renal
# A498 renal = system: A498 renal
# HCC-2998 colon = system: HCC-2998 colon
# HCT-116 colon = system: HCT-116 colon
# T-47D breast = system: T-47D breast
# MOLT-4 leukemia = system: MOLT-4 leukemia
# UO-31 renal = system: UO-31 renal
# SF-268 CNS = system: SF-268 CNS
# NCI-H522 lung = system: NCI-H522 lung
# LOX IMVI melanoma = system: LOX IMVI melanoma
# A549 NSCLC = system: A549 NSCLC
# OVCAR-8 ovarian = system: OVCAR-8 ovarian
# K-562 leukemia = system: K-562 leukemia
# SW-620 colon = system: SW-620 colon
# PC-3 prostate = system: PC-3 prostate
# UACC-257 melanoma = system: UACC-257 melanoma
# MDA-N = system: MDA-N
# U251 CNS = system: U251 CNS
# MDA-MB-231 breast = system: MDA-MB-231 breast
# NCI-H460 lung = system: NCI-H460 lung
# OVCAR-3 ovarian = system: OVCAR-3 ovarian
# M14 melanoma = system: M14 melanoma
# OVCAR-5 ovarian = system: OVCAR-5 ovarian
# SN12C renal = system: SN12C renal
# IGROV1 ovarian = system: IGROV1 ovarian
# BT-549 breast = system: BT-549 breast
# SK-MEL-28 melanoma = system: SK-MEL-28 melanoma
# RXF 393 renal = system: RXF 393 renal
# SNB-19 CNS = system: SNB-19 CNS
# CAKI-1 renal = system: CAKI-1 renal
# OVCAR-4 ovarian = system: OVCAR-4 ovarian
# SK-MEL-5 melanoma = system: SK-MEL-5 melanoma
# SF-295 CNS = system: SF-295 CNS
# SF-539 CNS = system: SF-539 CNS
# SNB-75 CNS = system: SNB-75 CNS
# TK-10 renal = system: TK-10 renal
# MCF7 breast = system: MCF7 breast
# SK-MEL-2 melanoma = system: SK-MEL-2 melanoma
# HT29 colon = system: HT29 colon
# NCI/ADR-RES ovarian = system: NCI/ADR-RES ovarian
# HS 578T breast = system: HS 578T breast
# DU-145 prostate = system: DU-145 prostate
# HL-60(TB) leukemia = system: HL-60(TB) leukemia
# MDA-MB-435 = system: MDA-MB-435
# SR leukemia = system: SR leukemia
# NCI-H226 lung = system: NCI-H226 lung
# UACC-62 melanoma = system: UACC-62 melanoma
# HOP-92 NSCLC = system: HOP-92 NSCLC
# HCT-15 colon = system: HCT-15 colon
# CCRF-CEM leukemia = system: CCRF-CEM leukemia
compound,measurement,setting,value
CC(C)(C)C1CCC2c3c([nH]c4ccccc34)C3C(=O)N(c4cccc(Cl)c4)C(=O)C3C2C1 (centres undefined),TGI,786-0 renal,22 µM
same,TGI,COLO 205 colon,35.8 µM
same,TGI,NCI-H23 lung,25.3 µM
same,TGI,MALME-3M melanoma,32.4 µM
same,TGI,SK-OV-3 ovarian,63.2 µM
same,TGI,HOP-62 NSCLC,18 µM
same,TGI,KM12 colon,14.5 µM
same,TGI,RPMI-8226 leukemia,> 72.2 µM
same,TGI,EKVX NSCLC,43.7 µM
same,TGI,ACHN renal,44.2 µM
same,TGI,A498 renal,53.7 µM
same,TGI,HCC-2998 colon,12.4 µM
same,TGI,HCT-116 colon,19.3 µM
same,TGI,T-47D breast,48.7 µM
same,TGI,MOLT-4 leukemia,13 µM
same,TGI,UO-31 renal,15.1 µM
same,TGI,SF-268 CNS,32.4 µM
same,TGI,NCI-H522 lung,34.5 µM
same,TGI,LOX IMVI melanoma,20.8 µM
same,TGI,A549 NSCLC,> 55.8 µM
same,TGI,OVCAR-8 ovarian,> 55.6 µM
same,TGI,K-562 leukemia,> 49.6 µM
same,TGI,SW-620 colon,23.2 µM
same,TGI,PC-3 prostate,36.9 µM
same,TGI,UACC-257 melanoma,29.6 µM
same,TGI,MDA-N,24.7 µM
same,TGI,U251 CNS,38.4 µM
same,TGI,MDA-MB-231 breast,29.6 µM
same,TGI,NCI-H460 lung,17.7 µM
same,TGI,OVCAR-3 ovarian,33.3 µM
same,TGI,M14 melanoma,28.3 µM
same,TGI,OVCAR-5 ovarian,30.3 µM
same,TGI,SN12C renal,15.6 µM
same,TGI,IGROV1 ovarian,45.7 µM
same,TGI,BT-549 breast,41.1 µM
same,TGI,SK-MEL-28 melanoma,32 µM
same,TGI,RXF 393 renal,22.6 µM
same,TGI,SNB-19 CNS,> 100 µM
same,TGI,CAKI-1 renal,53.2 µM
same,TGI,OVCAR-4 ovarian,58.1 µM
same,TGI,SK-MEL-5 melanoma,26.3 µM
same,TGI,SF-295 CNS,44.7 µM
same,TGI,SF-539 CNS,35.5 µM
same,TGI,SNB-75 CNS,50.1 µM
same,TGI,TK-10 renal,39 µM
same,TGI,MCF7 breast,4.22 µM
same,TGI,SK-MEL-2 melanoma,35.1 µM
same,TGI,HT29 colon,20 µM
same,TGI,NCI/ADR-RES ovarian,34 µM
same,TGI,HS 578T breast,> 68.1 µM
same,TGI,DU-145 prostate,33.2 µM
same,TGI,HL-60(TB) leukemia,13 µM
same,TGI,MDA-MB-435,48.9 µM
same,TGI,SR leukemia,> 36 µM
same,TGI,NCI-H226 lung,39.9 µM
same,TGI,UACC-62 melanoma,33.4 µM
same,TGI,HOP-92 NSCLC,18.9 µM
same,TGI,HCT-15 colon,42.6 µM
same,TGI,CCRF-CEM leukemia,> 91.8 µM
